Values after ≈ are worked out from the molar mass of the structure shown.
Legend:
[1] = PLAP-mediated conversion of prodrug to drug; format: ADME
[2] = Solubility in phosphate buffer by radiotracer analysis method; format: physicochemical
[3] = Aqueous solubility by radiotracer analysis method; format: physicochemical; conditions: buffer

Activity [1]	solubility [2]	solubility [3]	Structure (SMILES)
Active	4350 µg/mL		N.N.N.N.O=P(O)(O)Oc1ccc(-c2nc(O)c3cc([127I])ccc3n2)c(OP(=O)(O)O)c1
		0.00968 µg/mL (≈ 0.0255 µM)	O=c1[nH]c(-c2ccc(O)cc2O)nc2ccc([127I])cc12
Active			N.N.N.N.O=c1[nH]c(-c2ccc(OP(=O)(O)O)cc2OP(=O)(O)O)nc2ccc([125I])cc12
